Entries after “also recorded” stand apart in the source; their conditions may differ. Like-named read-outs stand apart in the source and are kept apart here.
Experiments:
[1] = test system: various human and mouse cell lines; assay: Toxicity of the test solution on cell lines; format: cell-based; settings: test solution (2 mg COAM in 100 μl 0.9% NaCl)
[2] = molecular target: T1, mouse granulocyte chemotactic protein-2 (mGCP-2) (Mus musculus, UniProt P50228); assay: Chemokine binding in solution, gel filtration chromatography with ELISA of fractions
T1 sequence (P50228 41-132): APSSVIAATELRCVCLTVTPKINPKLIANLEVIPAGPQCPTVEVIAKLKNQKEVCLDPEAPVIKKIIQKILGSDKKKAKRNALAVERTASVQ
Method: The COAM preparation was incubated with 50 nanogram mouse GCP-2 and the mixture was analysed by gel filtration chromatography (lower figure) and the presence of GCP-2 in the column fractions was analysed with a sensitive ELISA for mouse GCP-2.
(§1) COAM alone, mGCP-2 or COAM incubated in the presence of mGCP-2 were separated by classical gel filtration chromatography. The elution fractions were collected and the presence of mGCP-2 was determined in the elution fractions by ELISA specific for mGCP-2. […] Since COAM itself is a mixture of polymers with different lengths, we fractioned first COAM in three fractions and then repeated the mGCP-2 binding and chromatographic analysis (as described above) with the high molecular weight COAM (high MW COAM) and mGCP-2. […] This is illustrated in FIG. 2.

[3] = molecular target: T2, human interleukin-8/CXCL8 (IL-8/CXCL8) (Homo sapiens, UniProt P10145); assay: Chemokine binding in solution, gel filtration chromatography; settings: 500 ng IL-8/CXCL8; free IL-8 eluted at low molecular masses
T2 sequence (P10145 21-99): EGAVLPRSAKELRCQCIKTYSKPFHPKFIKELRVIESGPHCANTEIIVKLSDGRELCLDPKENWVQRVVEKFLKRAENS
Method: as §1
In a second set of experiments human 500 ng interleukin-8/CXCL8 (IL-8/CXCL8) was tested.

[4] = molecular target: human monocyte chemotactic protein-1/CCL2 (MCP-1/CCL2) (Homo sapiens, UniProt P13500); assay: as above; settings: 500 ng MCP-1/CCL2; free MCP-1 eluted at low molecular weight
human monocyte chemotactic protein-1/CCL2 (MCP-1/CCL2), sequence (P13500 24-99): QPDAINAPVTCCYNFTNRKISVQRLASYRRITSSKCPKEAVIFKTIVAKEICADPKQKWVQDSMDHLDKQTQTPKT
Method: as §1
In a third set, 500 ng human monocyte chemotactic protein-1/CCL2 (MCP-1/CCL2) was tested. Again, free MCP-1 eluted at low molecular weight, compatible with the relative size of MCP-1. […] This is again compatible with its binding to COAM

[5] = molecular target: T3, synthetic human IP-10/CXCL10 (Homo sapiens, UniProt P02778); assay: as above; settings: no separate IP-10 result printed
T3 sequence (P02778 22-98): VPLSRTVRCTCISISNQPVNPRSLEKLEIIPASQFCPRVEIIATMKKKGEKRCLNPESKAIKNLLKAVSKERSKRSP
Text: In a fourth example, we used synthetic human IP-10/CXCL10.

[6] = test system: B16-F1 mouse melanoma tumors; assay: Syngeneic B16-F1 melanoma tumors in C57BI6 mice, intratumoral injection; format: in vivo; settings: for effect on tumor expansion: single intratumoral dose of 100 μg at day 1 post tumor inoculation, COAM, heparin, saline compared
Method: We used B16-F1 mouse melanoma tumors in C57BI6 mice. 0.5 million tumor cells were injected intradermally on day 0 as known in the art. In one experiment, control mice were injected with saline on days 1, 8 and 15. The treated group COAM d1 was injected intratumorally with a single dose of 100 μg COAM on day1. The treated group COAM d1, d8, d15 was injected with 100 μg COAM three times intratumorally. […] In some cases the tumor ulcerated.
At day 18, all tumors were excised and their volumes and weights were measured.
In particular, in the FIGS. 5 A, B, C and D, we used heparin as an additional control. […] Heparin is a polyanion and binds chemokines and mimics heparin sulphate proteoglycans. The experiment was repeated as above with a single intratumoral dose of 100 μg COAM, 100 μg heparin and saline control at day 1 post tumor inoculation.

B16-F1 cells = assay: B16 melanoma formation in immunocompromised SCID mice; format: in vivo; settings: 500 000 B16-F1 cells s.c. on day 0
Text: We used a similar protocol as above in immunocompromised SCID mice. The SCID mice received s.c. 500 000 B16-F1 cells on day 0.

[7] = test system: CD11b+Gr-1+ cells (neutrophils); assay: EAE model: neutrophil mobilization to the peritoneal cavity and infiltration of spinal cord and brain; format: in vivo, mice; settings: for CD11b^+Gr-1^+ cells in the peritoneal cavity: 2 mg COAM i.p. on day 0 and 7
Method: FIG. 9: Mobilization of neutrophils into the peritoneal cavity in response to COAM. Mice were immunized with SCH in CFA and treated with COAM (2 mg) or saline on days 0 and 7. Peritoneal cells were collected on days 5, 9 and 14, or 16 post immunization. […] Data represent three individual experiments taken together; bars represent averages±standard error of the mean of seven or nine mice. (B) Flow cytometric analysis of peritoneal cells of control mice and COAM-treated mice. Cells were stained for the presence of CD11b using FITC-labeled antibodies, and of Gr-1 using PE-labeled antibodies. Numbers indicated on each graph represent percent CD11b^+Gr-1^+ cells. One representative analysis out of 9 is shown.
FIG. 10: Neutrophil infiltration in the spinal cord and brain of COAM-treated mice is reduced compared with saline-treated control mice. […] Data of 3 pooled experiments are shown. Histograms represent averages±SEM. (B) Flow cytometry of cells isolated from the spinal cord and brain on day 16 post immunization of mice treated with COAM (2 mg) or saline on days 0 and 7. Cells were stained for CD11b and Gr-1. Numbers indicated on each graph represent percent CD11b^+Gr-1^+ cells. Each plot represents a staining pattern of pooled cells from 3 mice. Results are representative of three independent experiments with similar results.
(§2) Experimental autoimmune encephalomyelitis was induced in mice (mice were immunized with SCH in CFA) and the groups were randomized. One group was treated with 2 mg COAM intraperitoneally on day 0 and day 7.
Mice were immunized with SCH in CFA on day 0 and treated i.p. with 2 mg COAM or saline on day 0 and 7. Cells were obtained from the peritoneal cavity of saline- and COAM-treated mice on day 5, 9 and 14, 15 or 16 after immunization. Cells were stained with anti-CD11b-FITC and anti-Gr-1-PE antibodies. The proportion of CD11b^+Gr-1^+ cells is shown. Results represent pooled data from 3 experiments and N indicates the total number of mice examined. *p<0.05 between COAM-treated and saline-treated mice (Mann-Whitney U-test).

[8] = test system: experimental autoimmune encephalomyelitis; assay: EAE model: clinical course of active EAE; format: in vivo, SJL/J mice
Method: FIG. 11: The clinical course of active EAE is attenuated in COAM-treated mice. SJL/J mice were immunized subcutaneously with syngeneic spinal cord homogenate for induction of EAE. They were treated i.p. with 2 mg COAM (filled boxes) or saline (open boxes) on day 0 (A), day 8 (B) or days 0 and 7 (C) post immunization. The clinical course of EAE in these mice is shown as mean daily group score±sem. The disease parameters are given as an insert. Dead animals were scored 6 from the day of death until the end of the study. Arrows point to the days of COAM administration. *p<0.05; **p<0.01 for comparison with saline-treated group; Wilcoxon test or Chi-square test.
as §2
SJL/J mice were immunized subcutaneously with syngeneic spinal cord homogenate for induction of EAE. They were treated i.p. with 2 mg COAM (filled boxes) or saline (open boxes) on day 0 (A), day 8 (B) or days 0 and 7 (C) post immunization. The clinical course of EAE in these mice is shown as mean daily group score±sem. The disease parameters are given as an insert. Dead animals were scored 6 from the day of death until the end of the study. […]

peritoneal leukocytes = settings: for neutrophils among peritoneal cells: 2 mg unfractionated COAM i.p.
Method: In a first set of in vivo experiments, 2 mg of COAM (unfractionated, solution of 2 mg in 100 μl sterile pyrogen-free 0.9% NaCl) was injected intraperitoneally per mouse and leukocytes were counted and defined at different times after injection of groups of 3-4 mice.

[9] = test system: Moloney Sarcoma Virus-induced tumor; settings: IP administration; De Clercq et al. 1972; cited from earlier work
[10] = EAE mice, 2 mg COAM i.p. on days 0 and 7

Substance: chlorite-oxidized oxyamylose [COAM]
- toxic effect on cell lines [1]: not any toxic effect
- elution position of mGCP-2 together with COAM (molecular weight range) ([2]; COAM incubated with mGCP-2, mGCP-2 alone eluted at about 10 kilodaltons): > 50 kilodaltons
- binding of mGCP-2 ([2]; in solution, gel filtration, ELISA for mouse GCP-2): GCP-2 binds to COAM in solution
- elution of interleukin-8 in the presence of COAM [3]: coeluted with COAM at high relative molecular weight
- elution of MCP-1 in the presence of COAM [4]: eluted at the position of the high molecular weight of COAM
- chemokine binding, conclusion from results with mGCP-2, IL-8, MCP-1, IP-10 [5]: general chemokine-binding factor
- additional effect of three injections instead of one injection ([6]; 100 μg intratumorally d1, d8, d15 versus d1 only): No additional effect
- overall mean tumor volume and weights as function of time ([6]; COAM-treated groups (100 μg intratumorally d1, or d1, d8, d15) versus saline): significantly reduced
- tumor burden with exclusion of ulcerated open tumors ([6]; COAM-treated groups versus saline): significant effect on tumor burden
- spleen weight (readout of systemic inflammation) ([6]; after intratumoral injection, compared with saline and heparin): no overt splenomegaly
- tumor volume ([6]; single COAM-treated group (COAM d1 only) versus saline, several experiments combined, p<0.015): significantly reduced
- tumor weight ([6]; single COAM-treated group (COAM d1 only) versus saline, several experiments combined, p<0.025): significantly reduced
- tumor growth ([6]; single dose of 100 μg COAM intratumorally at Day 1 versus saline, 6 COAM-treated and 5 control mice): significant reduction of tumor growth
- effect on tumor expansion [6]: lasting and significant effect
- tumor volume ([6]; triple treated COAM versus control group, p<0.030): significantly reduced
- tumor weight ([6]; triple treated COAM versus control group, p<0.05): significantly reduced
- protection against tumors in an immunocompromised host (B16-F1 cells): protects an immunocompromised host against tumors
- mast cell population in the peritoneal cavity [7, 10]: reduced; also recorded: decrease in mast cells
- neutrophil recruitment to the peritoneal cavity [7, 10]: increased neutrophil recruitment; also recorded: specific infiltration of neutrophils
- CD11b^+Gr-1^+ cells in the peritoneal cavity ([7]; day 5 p.i., N = 8): 322.78 ± 79.43 (N = 8) ×10^4
- CD11b^+Gr-1^+ cells in the peritoneal cavity ([7]; day 9 p.i., N = 9, p<0.05 versus saline): 1210.85 ± 272.05 (N = 9) * ×10^4
- CD11b^+Gr-1^+ cells in the peritoneal cavity ([7]; day 14-16 p.i., N = 5, p<0.05 versus saline): 276.66 ± 67.29 (N = 5) * ×10^4
- neutrophil infiltration into spinal cord and brain ([7]; day 16 post immunization, 2 mg COAM i.p. on days 0 and 7, versus saline): reduced; also recorded: lower percentage of neutrophils
- clinical course of active EAE (mean daily group score) ([8]; 2 mg COAM i.p. on day 0, day 8 or days 0 and 7 post immunization, versus saline): attenuated
- protection against severe EAE ([8]; two injections of COAM): protect a mammalian host against severe EAE
- survival and morbidity of the mice (peritoneal leukocytes; 2 mg unfractionated COAM i.p. per mouse): survived without apparent morbidity
- peritoneal cells (peritoneal leukocytes; 2 mg unfractionated COAM i.p. per mouse, within 2 hours, control 126.000 cells): 630.000 cells
- neutrophils among peritoneal cells (peritoneal leukocytes; at 4 h): 64.1%
- neutrophils among peritoneal cells (peritoneal leukocytes; at 8 h): 70.3%
- neutrophils among peritoneal cells (peritoneal leukocytes; within 2 hours, control 2.2%): 18.1%
- regression of tumors [9]: not show a regression of tumors

Substance: heparin [reference compound]
- effect on tumor expansion [6]: some effect in the early phase

Source: US20100240605A1, “NOVEL IMMUNOTHERAPY STRATEGY” (priority 2007, published 2010)
